Measurements as given in article PMC9916685, “Discovery of Small Molecule COX-1 and Akt Inhibitors as Anti-NSCLC Agents Endowed with Anti-Inflammatory Action” (International Journal of Molecular Sciences, 2023).

Key:
[1] = system: L929 mouse fibroblast (normal) cells; assay: MTT cytotoxicity assay, L929 normal cells; type: cell-based; settings: MTT, L929 mouse fibroblast cells, mean ± SD
Procedure: A549 human lung adenocarcinoma and L929 mouse fibroblast cell lines were obtained from American Type Culture Collection (ATCC) (Manassas, VA, USA). Both cell lines were cultured, and drug treatments were carried out as previously reported.
MTT assay was conducted as previously explained in the literature with small modifications. Cisplatin was used as a positive control. The assay was performed in triplicate. IC50 data (µM) were expressed as mean ± SD.

COX-1 = target: T1, COX-1 (Ovis aries, UniProt P05979); assay: COX (ovine) colorimetric inhibitor screening assay, COX-1; type: biochemical; settings: for IC50: ovine COX-1, colorimetric, triplicate, mean ± SD; for SI (IC50 for COX-1/IC50 for COX-2): selectivity index
T1 construct: purchased Cayman
T1 sequence (P05979 25-600): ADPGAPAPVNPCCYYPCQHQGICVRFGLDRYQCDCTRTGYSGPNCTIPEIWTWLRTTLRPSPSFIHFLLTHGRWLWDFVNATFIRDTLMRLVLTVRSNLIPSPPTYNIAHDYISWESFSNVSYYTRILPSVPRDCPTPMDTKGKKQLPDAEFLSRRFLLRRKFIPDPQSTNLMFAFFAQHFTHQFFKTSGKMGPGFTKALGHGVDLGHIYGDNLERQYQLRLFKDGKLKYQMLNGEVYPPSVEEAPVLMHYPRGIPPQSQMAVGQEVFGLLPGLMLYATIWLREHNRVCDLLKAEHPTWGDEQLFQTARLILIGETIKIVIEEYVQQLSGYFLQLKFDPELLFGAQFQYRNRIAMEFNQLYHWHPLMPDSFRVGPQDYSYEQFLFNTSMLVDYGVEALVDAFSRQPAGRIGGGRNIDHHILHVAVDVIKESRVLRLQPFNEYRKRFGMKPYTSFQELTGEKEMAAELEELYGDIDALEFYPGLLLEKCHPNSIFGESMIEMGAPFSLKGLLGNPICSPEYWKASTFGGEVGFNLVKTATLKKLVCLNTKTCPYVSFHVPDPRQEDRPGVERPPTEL
Procedure: (§1) COX (ovine) Colorimetric Inhibitor Screening Assay (Cayman, Ann Arbor, MI, USA) was conducted to detect the peroxidase component of COX-1 and COX-2 according to the manufacturer’s instructions. The assay was performed in triplicate. Half maximal inhibitory concentration (IC50) data (µM) were expressed as mean ± SD.

COX-2 = target: T2, COX-2 (Ovis aries, UniProt P79208); assay: COX (ovine) colorimetric inhibitor screening assay, COX-2; type: biochemical; settings: ovine COX-2, colorimetric, triplicate, mean ± SD
T2 construct: purchased Cayman
T2 sequence (P79208 17-603): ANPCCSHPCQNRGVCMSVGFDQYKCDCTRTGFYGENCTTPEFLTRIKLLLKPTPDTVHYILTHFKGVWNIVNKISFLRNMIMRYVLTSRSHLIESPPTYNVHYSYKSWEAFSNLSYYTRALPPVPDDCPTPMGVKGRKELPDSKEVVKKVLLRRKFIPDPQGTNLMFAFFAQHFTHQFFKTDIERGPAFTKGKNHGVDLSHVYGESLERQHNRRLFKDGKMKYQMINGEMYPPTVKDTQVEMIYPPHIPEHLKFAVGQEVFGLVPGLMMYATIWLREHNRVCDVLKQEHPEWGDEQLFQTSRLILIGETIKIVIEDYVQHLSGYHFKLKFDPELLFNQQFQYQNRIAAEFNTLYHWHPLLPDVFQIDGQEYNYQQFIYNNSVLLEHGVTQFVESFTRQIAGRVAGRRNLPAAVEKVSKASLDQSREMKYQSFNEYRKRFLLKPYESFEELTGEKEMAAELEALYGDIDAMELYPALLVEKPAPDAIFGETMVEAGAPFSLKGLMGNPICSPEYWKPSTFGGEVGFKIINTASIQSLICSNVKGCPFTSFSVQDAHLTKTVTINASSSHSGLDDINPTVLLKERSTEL
Procedure: as §1

IC50 (COX-1) [µM] | SI (IC50 for COX-1/IC50 for COX-2) (COX-1) | IC50 (COX-2) [µM] | melting point [°C] | SMILES | IC50 [1] [µM]
10.3 ± 0.35 | 0.83 | 12.5 ± 0.71 | 302 to 303 | O=C(Cc1c[nH]c2ccccc12)NN=Cc1ccc(N2CCCC2)cc1 [Compound 3a, 2-(1H-Indol-3-yl)-N′-[4-(pyrrolidin-1-yl)benzylidene]acetohydrazide] | 17.3 ± 2.08
> 100 |  | > 100 | 265 to 266 | O=C(Cc1c[nH]c2ccccc12)NN=Cc1ccc(N2CCCCC2)cc1 [Compound 3c, 2-(1H-Indol-3-yl)-N′-[4-(piperidin-1-yl)benzylidene]acetohydrazide] | 21.3 ± 0.58
78.5 ± 8.5 | <0.79 | > 100 | 218 to 220 | CN1CCN(c2ccc(C=NNC(=O)Cc3c[nH]c4ccccc34)cc2)CC1 [Compound 3d, 2-(1H-Indol-3-yl)-N′-[4-(4-methylpiperazin-1-yl)benzylidene]acetohydrazide] | 20 ± 1.73
83.8 ± 6.25 | 2.39 | 35 ± 9.9 | 264 to 265 | CS(=O)(=O)c1ccc(C=NNC(=O)Cc2c[nH]c3ccccc23)cc1 [Compound 3e, 2-(1H-Indol-3-yl)-N′-(4-methylsulfonylbenzylidene)acetohydrazide] | 85 ± 17.3
93.7 ± 6.25 | 1.84 | 51 ± 12.7 | 204 to 205 | CC(=NNC(=O)Cc1c[nH]c2ccccc12)c1ccc(S(C)(=O)=O)cc1 [Compound 3f, 2-(1H-Indol-3-yl)-N′-[1-(4-methylsulfonylphenyl)ethylidene]acetohydrazide] | < 3.9
51 ± 1 | 0.97 | 52.5 ± 0.71 | 198 to 199 | CC(=NNC(=O)Cc1c[nH]c2ccccc12)c1ccc(N2CCOCC2)cc1 [Compound 3g, 2-(1H-Indol-3-yl)-N′-[1-(4-morpholinophenyl)ethylidene]acetohydrazide] | < 3.9
38.5 ± 1.5 | 0.76 | 50.5 ± 0.7 | 132 to 135 | O=C(Cc1c[nH]c2ccccc12)NN=Cc1ccc(OCCN2CCOCC2)cc1 [Compound 3h, 2-(1H-Indol-3-yl)-N′-[4-(2-morpholinoethoxy)benzylidene]acetohydrazide] | < 3.9
31.2 ± 1.25 | <0.31 | > 100 | 221 to 224 | Cn1cc(C=NNC(=O)Cc2c[nH]c3ccccc23)c2ccccc21 [Compound 3i, 2-(1H-Indol-3-yl)-N′-[(1-methyl-1H-indol-3-yl)methylene]acetohydrazide] | 42.3 ± 0.58
> 100 | >1.63 | 61.5 ± 0.71 | 184 to 186 | O=C(Cc1c[nH]c2ccccc12)NNC(=S)Nc1ccc(C(F)(F)F)cc1 [Compound 4b, 4-(4-Trifluoromethylphenyl)-1-[2-(1H-indol-3-yl)acetyl]thiosemicarbazide] | 22.7 ± 2.08
> 100 | >1.77 | 56.5 ± 4.49 | 180 to 182 | N#Cc1ccc(NC(=S)NNC(=O)Cc2c[nH]c3ccccc23)cc1 [Compound 4c, 4-(4-Cyanophenyl)-1-[2-(1H-indol-3-yl)acetyl]thiosemicarbazide] | 26.3 ± 3.51
> 100 | >1.69 | 59 ± 8.48 | 182 to 184 | O=C(Cc1c[nH]c2ccccc12)NNC(=S)Nc1ccc(S(=O)(=O)N2CCCCC2)cc1 [Compound 4d, 4-[4-(Piperidin-1-ylsulfonyl)phenyl]-1-[2-(1H-indol-3-yl)acetyl]thiosemicarbazide] | 45.7 ± 6.03
> 100 | >3.17 | 31.5 ± 2.12 | 196 to 198 | O=C(Cc1c[nH]c2ccccc12)NNC(=S)Nc1ccc(-n2cccn2)cc1 [Compound 4e, 4-[4-(1H-Pyrazol-1-yl)phenyl]-1-[2-(1H-indol-3-yl)acetyl]thiosemicarbazide] | 62.3 ± 7.51
> 100 | >1.94 | 51.5 ± 0.71 | 168 to 170 | O=C(Cc1c[nH]c2ccccc12)NNC(=S)Nc1ccc2c(c1)OCO2 [Compound 4f, 4-(1,3-Benzodioxol-5-yl)-1-[2-(1H-indol-3-yl)acetyl]thiosemicarbazide] | 14 ± 5.29
> 100 | >1.68 | 59.5 ± 2.12 | 198 to 200 | O=C(Cc1c[nH]c2ccccc12)NNC(=S)Nc1ccc(OCc2ccccc2)cc1 [Compound 4g, 4-[4-(Benzyloxy)phenyl]-1-[2-(1H-indol-3-yl)acetyl]thiosemicarbazide] | 14 ± 3.46

SMILES | IC50 (COX-1) [µM] | SI (IC50 for COX-1/IC50 for COX-2) (COX-1) | IC50 (COX-2) [µM] | melting point [°C] | IC50 [1] [µM]
COc1ccc2[nH]cc(C=NNC(=O)Cc3c[nH]c4ccccc34)c2c1 [Compound 3j, 2-(1H-Indol-3-yl)-N′-[(5-methoxy-1H-indol-3-yl)methylene]acetohydrazide] | > 100 | >2.25 | 44.5 ± 6.36 |  | 43 ± 1.73
